Reference: US20220315558A1, “POLYMORPHS OF 1-(2-((((TRANS)-3-FLUORO-1-(3-FLUOROPYRIDIN-2-YL)CYCLOBUTYL)METHYL)AMINO)PYRIMIDIN-5-YL)-1H-PYRROLE-3-CARBOXAMIDE” (Cytokinetics, Inc., priority 2019, published 2022)

Legend:
Format in all cases: physicochemical
[1] = Gravimetric Vapour Sorption (GVS) moisture sorption isotherm; conditions: over 0-90% RH range, 25° C.
Description: GVS data were collected using a SMS DVS Intrinsic moisture sorption analyser, controlled by DVS Intrinsic Control software v1.0.0.30. The sample temperature was maintained at 25° C. by the instrument controls. The humidity was controlled by mixing streams of dry and wet nitrogen, with a total flow rate of 200 ml/min The relative humidity was measured by a calibrated Rotronic probe (dynamic range of 1.0-100% RH), located near the sample. The weight change, (mass relaxation) of the sample as a function of % RH was constantly monitored by the microbalance (accuracy ±0.005 mg).
Typically 5-20 mg of sample was placed in a tared mesh stainless steel basket under ambient conditions. The sample was loaded and unloaded at 40% RH and 25° C. (typical room conditions). A moisture sorption isotherm was performed as outlined below (2 scans giving 1 complete cycle). The standard isotherm was performed at 25° C. at 10% RH intervals over a 0-90% RH range. Data analysis was undertaken in Microsoft Excel using DVS Analysis Suite v6.0.

[2] = XRPD analysis after heating at 150° C.
Description: Polymorphic Form II of 1-(2-((((trans)-3-fluoro-1-(3-fluoropyridin-2-yl)cyclobutyl)methyl)amino)pyrimidin-5-yl)-1H-pyrrole-3-carboxamide was analyzed by XRPD, DSC, TGA, and GVS.

[3] = Competitive slurry experiments between Form I and Form V; conditions: XRPD
Description: For competitive slurry experiments, a mixture of Form I (˜10 mg) and Form V (˜10 mg) were suspended in 20 volumes of ethanol or methanol. Parallel maturation experiments were set up at a constant temperature, in the range of 4° C. to 60° C. for 9-12 days, the resulting solids (rapidly isolated by solvent decantation) were analyzed by XRPD. A mechanical mixture of Form I and Form V in equivalent weight was also analyzed by XRPD for reference. For the control experiments, slurries of Form I or Form V were subjected to the same conditions as in the competitive slurry experiments.
In an attempt to determine a transition temperature for the polymorph pair, a further four competitive slurry experiments were performed at a higher temperature range of 65-75° C. Using sealed vials, Form I (˜10 mg) and Form V (˜10 mg) were suspended in 20 volumes of ethanol or methanol and maturation continued for 2 days.

moisture uptake as determined by GVS [1]	solid form by XRPD after heating [2]	relative stability versus Form I (competitive slurry) ([3]; ethanol, 4° C. to 60° C., 9-12 days)	relative stability versus Form I (competitive slurry) ([3]; ethanol, 65-75° C., 2 days, sealed vials)	relative stability versus Form I (competitive slurry) ([3]; methanol, 4° C. to 60° C., 9-12 days)	solid form obtained from Form I/Form V competitive slurry ([3]; methanol, 65° C., 2 days, sealed vials)	SMILES
about 1.65%	converted to Form I					NC(=O)c1ccn(-c2cnc(NC[C@]3(c4ncccc4F)C[C@H](F)C3)nc2)c1 [Form II, 1-(2-((((trans)-3-fluoro-1-(3-fluoropyridin-2-yl)cyclobutyl)methyl)amino)pyrimidin-5-yl)-1H-pyrrole-3-carboxamide]
less than 0.05%		more stable	more stable form	more stable	mixture of both forms	NC(=O)c1ccn(-c2cnc(NC[C@]3(c4ncccc4F)C[C@H](F)C3)nc2)c1 [Form V, 1-(2-((((trans)-3-fluoro-1-(3-fluoropyridin-2-yl)cyclobutyl)methyl)amino)pyrimidin-5-yl)-1H-pyrrole-3-carboxamide]
